# Test results: ChEMBL document CHEMBL4673219, “Novel 5,6-disubstituted pyrrolo[2,3-d]pyrimidine derivatives as broad spectrum antiproliferative agents: Synthesis, cell based assays, kinase profile and molecular docking study” (Bioorg Med Chem, 2018)
# Assays:
# 786-0 = assay: Growth inhibition of human 786-0 cells assessed as growth percentage at 0.1 uM incubated for 48 hrs by sulforhodamine B assay relative to control; format: functional; conditions: read-out: Activity
# SNB-19 = assay: Growth inhibition of human SNB-19 cells assessed as growth percentage at 10 uM incubated for 48 hrs by sulforhodamine B assay relative to control; format: functional; conditions: read-out: Activity
# NCI-H460 [1] = assay: Growth inhibition of human NCI-H460 cells assessed as growth percentage at 0.1 uM incubated for 48 hrs by sulforhodamine B assay relative to control; format: functional; conditions: read-out: Activity
# A549 = assay: Growth inhibition of human A549/ATCC cells assessed as growth percentage at 100 uM incubated for 48 hrs by sulforhodamine B assay relative to control; format: functional; conditions: read-out: Activity
# Malme-3M = assay: Growth inhibition of human Malme-3M cells assessed as growth percentage at 100 uM incubated for 48 hrs by sulforhodamine B assay relative to control; format: functional; conditions: read-out: Activity
# RPMI-8226 [2] = assay: Growth inhibition of human RPMI-8226 cells assessed as growth percentage at 100 uM incubated for 48 hrs by sulforhodamine B assay relative to control; format: functional; conditions: read-out: Activity
# PC-3 [3] = assay: Growth inhibition of human PC-3 cells assessed as growth percentage at 1 uM incubated for 48 hrs by sulforhodamine B assay relative to control; format: functional; conditions: read-out: Activity
# SK-OV-3 = assay: Growth inhibition of human SK-OV-3 cells incubated for 48 hrs by sulforhodamine B assay; format: functional; conditions: Homo sapiens
# SK-MEL-5 [4] = assay: Growth inhibition of human SK-MEL-5 cells assessed as growth percentage at 10 uM incubated for 48 hrs by sulforhodamine B assay relative to control; format: functional; conditions: read-out: Activity
# SK-MEL-5 [5] = assay: Growth inhibition of human SK-MEL-5 cells assessed as growth percentage at 1 uM incubated for 48 hrs by sulforhodamine B assay relative to control; format: functional; conditions: read-out: Activity
# SR = assay: Growth inhibition of human SR cells incubated for 48 hrs by sulforhodamine B assay; format: functional
# Hs-578T [6] = assay: Growth inhibition of human Hs-578T cells assessed as growth percentage at 0.1 uM incubated for 48 hrs by sulforhodamine B assay relative to control; format: functional; conditions: read-out: Activity
# NCI-H460 [7] = assay: Growth inhibition of human NCI-H460 cells assessed as growth percentage at 10 uM incubated for 48 hrs by sulforhodamine B assay relative to control; format: functional; conditions: read-out: Activity
# OVCAR-3 = assay: Growth inhibition of human OVCAR-3 cells assessed as growth percentage at 10 uM incubated for 48 hrs by sulforhodamine B assay relative to control; format: functional; conditions: read-out: Activity
# PC-3 [8] = assay: Growth inhibition of human PC-3 cells incubated for 48 hrs by sulforhodamine B assay; format: functional
# SW-620 = assay: Growth inhibition of human SW-620 cells assessed as growth percentage at 10 uM incubated for 48 hrs by sulforhodamine B assay relative to control; format: functional; conditions: read-out: Activity
# LOX IMVI = assay: Growth inhibition of human LOX IMVI cells assessed as growth percentage at 1 uM incubated for 48 hrs by sulforhodamine B assay relative to control; format: functional; conditions: read-out: Activity
# HCC 2998 = assay: Growth inhibition of human HCC 2998 cells assessed as growth percentage at 100 uM incubated for 48 hrs by sulforhodamine B assay relative to control; format: functional; conditions: read-out: Activity
# UACC-62 = assay: Growth inhibition of human UACC-62 cells assessed as growth percentage at 0.01 uM incubated for 48 hrs by sulforhodamine B assay relative to control; format: functional; conditions: read-out: Activity
# HCT-116 = assay: Antiproliferative activity against human HCT-116 cells assessed as cell growth inhibition measured after 72 hrs by MTT assay; format: functional
# SF-539 = assay: Growth inhibition of human SF-539 cells incubated for 48 hrs by sulforhodamine B assay; format: functional
# OVCAR-4 = assay: Growth inhibition of human OVCAR-4 cells assessed as growth percentage at 0.01 uM incubated for 48 hrs by sulforhodamine B assay relative to control; format: functional; conditions: read-out: Activity
# DU-145 = assay: Growth inhibition of human DU-145 cells assessed as growth percentage at 10 uM incubated for 48 hrs by sulforhodamine B assay relative to control; format: functional; conditions: read-out: Activity
# NCI-H460 [9] = assay: Growth inhibition of human NCI-H460 cells incubated for 48 hrs by sulforhodamine B assay; format: functional
# MDA-MB-435 = assay: Growth inhibition of human MDA-MB-435 cells assessed as growth percentage at 100 uM incubated for 48 hrs by sulforhodamine B assay relative to control; format: functional; conditions: read-out: Activity
# RPMI-8226 [10] = assay: Growth inhibition of human RPMI-8226 cells assessed as growth percentage at 1 uM incubated for 48 hrs by sulforhodamine B assay relative to control; format: functional; conditions: read-out: Activity
# NCI-H226 = assay: Growth inhibition of human NCI-H226 cells assessed as growth percentage at 0.01 uM incubated for 48 hrs by sulforhodamine B assay relative to control; format: functional; conditions: read-out: Activity
# [11] = Cytotoxicity against human HFF-1 cells assessed as cell growth inhibition at 10 uM by MTT assay relative to control; format: cell-based; conditions: read-out: GI
# HOP-92 = assay: Growth inhibition of human HOP-92 cells assessed as growth percentage at 10 uM incubated for 48 hrs by sulforhodamine B assay relative to control; format: functional; conditions: read-out: Activity
# SK-MEL-5 [12] = assay: Growth inhibition of human SK-MEL-5 cells incubated for 48 hrs by sulforhodamine B assay; format: functional; conditions: Homo sapiens
# Hs-578T [13] = assay: Growth inhibition of human Hs-578T cells incubated for 48 hrs by sulforhodamine B assay; format: functional
# CAKI-1 = assay: Growth inhibition of human CAKI-1 cells assessed as growth percentage at 0.01 uM incubated for 48 hrs by sulforhodamine B assay relative to control; format: functional; conditions: read-out: Activity
# UO-31 = assay: Growth inhibition of human UO-31 cells assessed as growth percentage at 0.01 uM incubated for 48 hrs by sulforhodamine B assay relative to control; format: functional; conditions: read-out: Activity
# MDA-MB-231 = assay: Growth inhibition of human MDA-MB-231/ATCC cells assessed as growth percentage at 100 uM incubated for 48 hrs by sulforhodamine B assay relative to control; format: functional; conditions: read-out: Activity
# HCT-15 = assay: Growth inhibition of human HCT-15 cells assessed as growth percentage at 10 uM incubated for 48 hrs by sulforhodamine B assay relative to control; format: functional; conditions: read-out: Activity
# OVCAR-8 [14] = assay: Growth inhibition of human OVCAR-8 cells assessed as growth percentage at 0.1 uM incubated for 48 hrs by sulforhodamine B assay relative to control; format: functional; conditions: read-out: Activity
# OVCAR-8 [15] = assay: Growth inhibition of human OVCAR-8 cells incubated for 48 hrs by sulforhodamine B assay; format: functional; conditions: for CC50: read-out: LC50 (the source's name)
# M14 = assay: Growth inhibition of human M14 cells assessed as growth percentage at 0.1 uM incubated for 48 hrs by sulforhodamine B assay relative to control; format: functional; conditions: read-out: Activity
structure (smiles),measurement,setting,value
CCCCCCCC(=O)Nc1nc2[nH]c(CN3CCN(Cc4cccc(F)c4)CC3)c(CN3CCN(Cc4cccc(F)c4)CC3)c2c(=O)[nH]1,growth at 0.1 µM,786-0,92%
same,growth at 10 µM,SNB-19,-81.6%
same,growth at 0.1 µM,NCI-H460 [1],105%
same,growth at 100 µM,A549,-88%
same,growth at 100 µM,Malme-3M,-73%
same,growth at 100 µM,RPMI-8226 [2],1%
same,growth at 1 µM,PC-3 [3],68%
same,GI50,SK-OV-3; SK-OV-3,1900 nM
same,LC50,"SK-OV-3; SK-OV-3, 48 h",5860 nM
same,TGI,"SK-OV-3; SK-OV-3, 48 h",3330 nM
same,growth at 10 µM,SK-MEL-5 [4],33.5%
same,growth at 1 µM,SK-MEL-5 [5],84%
same,GI50,SR,210 nM
same,TGI,SR,550 nM
same,GI50,"SR; Homo sapiens, SR",208 nM
same,TGI,"SR; Homo sapiens, SR",548 nM
same,CC50,"SR; Homo sapiens, SR, read-out: LC50 (the source's name)",> 100000 nM
same,growth at 0.1 µM,Hs-578T [6],96%
same,growth at 10 µM,NCI-H460 [7],-82.3%
same,growth at 10 µM,OVCAR-3,-95%
same,GI50,PC-3 [8],1300 nM
same,TGI,PC-3 [8],2670 nM
same,CC50,PC-3 [8]; read-out: LC50 (the source's name),5470 nM
same,growth at 10 µM,SW-620,-78.5%
same,growth at 1 µM,LOX IMVI,-58%
same,growth at 100 µM,HCC 2998,-79%
same,growth at 0.01 µM,UACC-62,97%
same,GI50,HCT-116,2250 nM
same,GI50,SF-539,1560 nM
same,growth at 0.01 µM,OVCAR-4,98%
same,growth at 10 µM,DU-145,-74.7%
same,GI50,NCI-H460 [9]; 48 h,380 nM
same,LC50,"NCI-H460 [9]; Homo sapiens, NCI-H460",4310 nM
same,TGI,"NCI-H460 [9]; Homo sapiens, NCI-H460",1300 nM
same,GI50,"NCI-H460 [9]; Homo sapiens, NCI-H460, 48 h",383 nM
same,growth at 100 µM,MDA-MB-435,-83%
same,growth at 1 µM,RPMI-8226 [10],13%
same,growth at 0.01 µM,NCI-H226,94%
same,inhibition at 10 µM,[11],14.1%
same,growth at 10 µM,HOP-92,-7.31%
same,GI50,SK-MEL-5 [12]; SK-MEL-5,1570 nM
same,TGI,SK-MEL-5 [12]; SK-MEL-5,3030 nM
same,CC50,"SK-MEL-5 [12]; SK-MEL-5, 48 h, read-out: LC50 (the source's name)",5870 nM
same,GI50,Hs-578T [13],1720 nM
same,TGI,Hs-578T [13],4180 nM
same,growth at 0.01 µM,CAKI-1,92%
same,growth at 0.01 µM,UO-31,77%
same,growth at 100 µM,MDA-MB-231,-66%
same,growth at 10 µM,HCT-15,-70.8%
same,growth at 0.1 µM,OVCAR-8 [14],103%
same,GI50,OVCAR-8 [15]; 48 h,210 nM
same,TGI,OVCAR-8 [15]; 48 h,410 nM
same,CC50,OVCAR-8 [15]; 48 h,800 nM
same,GI50,"OVCAR-8 [15]; Homo sapiens, OVCAR-8, 48 h",205 nM
same,TGI,"OVCAR-8 [15]; Homo sapiens, OVCAR-8, 48 h",405 nM
same,CC50,"OVCAR-8 [15]; Homo sapiens, OVCAR-8, 48 h",801 nM
same,growth at 0.1 µM,M14,94%
